Reference: ChEMBL document CHEMBL4507319 (2021)

Columns and labels:
[1] = molecular target: Epithelial discoidin domain-containing receptor 1 (Homo sapiens) (UniProt Q08345); settings: Compound concentration 1000.0 nM
[2] = molecular target: Ephrin type-B receptor 6 (Homo sapiens) (UniProt O15197); settings: Compound concentration 1000.0 nM
[3] = molecular target: Receptor-type tyrosine-protein kinase FLT3 (Homo sapiens) (UniProt P36888); settings: Compound concentration 1000.0 nM
[4] = test system: Receptor-type tyrosine-protein kinase FLT3 (Homo sapiens), P36888 [UNDEFINED MUTATION]; settings: Compound concentration 1000.0 nM
[5] = test system: Receptor-type tyrosine-protein kinase FLT3 (Homo sapiens), P36888 [UNDEFINED MUTATION]; settings: Compound concentration 1000.0 nM; remark: listed apart in the source
[6] = molecular target: Insulin-like growth factor 1 receptor (Homo sapiens) (UniProt P08069); settings: Compound concentration 1000.0 nM
[7] = molecular target: T1, Inhibitor of nuclear factor kappa-B kinase subunit epsilon (Homo sapiens) (UniProt Q14164); settings: Compound concentration 1000.0 nM
T1 sequence (whole entry): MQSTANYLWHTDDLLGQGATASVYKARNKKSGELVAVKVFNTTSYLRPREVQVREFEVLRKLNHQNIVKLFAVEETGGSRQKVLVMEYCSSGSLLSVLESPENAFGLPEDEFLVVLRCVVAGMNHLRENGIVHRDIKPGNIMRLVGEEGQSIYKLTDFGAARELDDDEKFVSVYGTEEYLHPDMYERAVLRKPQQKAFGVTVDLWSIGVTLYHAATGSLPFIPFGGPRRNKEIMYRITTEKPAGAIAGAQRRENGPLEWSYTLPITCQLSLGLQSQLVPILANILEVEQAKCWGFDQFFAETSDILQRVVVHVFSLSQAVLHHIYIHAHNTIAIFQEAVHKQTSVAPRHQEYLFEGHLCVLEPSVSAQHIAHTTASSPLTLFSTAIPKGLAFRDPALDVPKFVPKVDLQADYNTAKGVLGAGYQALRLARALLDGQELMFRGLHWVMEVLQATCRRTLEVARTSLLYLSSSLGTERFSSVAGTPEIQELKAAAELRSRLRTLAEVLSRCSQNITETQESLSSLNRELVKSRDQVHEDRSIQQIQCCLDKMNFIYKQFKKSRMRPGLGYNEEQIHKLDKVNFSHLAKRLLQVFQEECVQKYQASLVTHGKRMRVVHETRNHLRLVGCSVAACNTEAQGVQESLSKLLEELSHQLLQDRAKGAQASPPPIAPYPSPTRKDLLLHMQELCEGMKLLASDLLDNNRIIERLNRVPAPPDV

[8] = molecular target: Interleukin-1 receptor-associated kinase 1 (Homo sapiens) (UniProt P51617); settings: Compound concentration 1000.0 nM
[9] = molecular target: Dual specificity mitogen-activated protein kinase kinase 4 (Homo sapiens) (UniProt P45985); settings: Compound concentration 1000.0 nM
[10] = molecular target: T2, Serine/threonine-protein kinase NLK (Homo sapiens) (UniProt Q9UBE8); settings: Compound concentration 1000.0 nM
T2 sequence (whole entry): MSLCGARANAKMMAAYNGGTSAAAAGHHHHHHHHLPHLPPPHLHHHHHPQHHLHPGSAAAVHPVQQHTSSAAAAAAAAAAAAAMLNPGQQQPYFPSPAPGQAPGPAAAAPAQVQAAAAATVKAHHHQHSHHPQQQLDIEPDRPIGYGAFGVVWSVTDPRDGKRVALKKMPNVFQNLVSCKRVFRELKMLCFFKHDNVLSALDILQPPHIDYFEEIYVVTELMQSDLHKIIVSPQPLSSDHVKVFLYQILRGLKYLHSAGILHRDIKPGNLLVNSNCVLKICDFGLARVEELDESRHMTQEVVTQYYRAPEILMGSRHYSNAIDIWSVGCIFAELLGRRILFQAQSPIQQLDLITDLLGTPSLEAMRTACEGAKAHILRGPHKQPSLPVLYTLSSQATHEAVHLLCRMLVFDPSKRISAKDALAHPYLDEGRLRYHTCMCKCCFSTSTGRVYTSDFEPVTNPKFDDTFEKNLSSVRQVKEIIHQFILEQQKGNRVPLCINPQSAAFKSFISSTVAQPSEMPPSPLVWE

[11] = molecular target: Phosphorylase b kinase gamma catalytic chain, skeletal muscle/heart isoform (Homo sapiens) (UniProt Q16816); settings: Compound concentration 1000.0 nM
[12] = test system: Phosphatidylinositol 4,5-bisphosphate 3-kinase catalytic subunit alpha isoform (Homo sapiens), P42336 [Q546K]; settings: Compound concentration 1000.0 nM
[13] = molecular target: T3, Serine/threonine-protein kinase Sgk1 (Homo sapiens) (UniProt O00141); settings: Compound concentration 1000.0 nM
T3 sequence (whole entry): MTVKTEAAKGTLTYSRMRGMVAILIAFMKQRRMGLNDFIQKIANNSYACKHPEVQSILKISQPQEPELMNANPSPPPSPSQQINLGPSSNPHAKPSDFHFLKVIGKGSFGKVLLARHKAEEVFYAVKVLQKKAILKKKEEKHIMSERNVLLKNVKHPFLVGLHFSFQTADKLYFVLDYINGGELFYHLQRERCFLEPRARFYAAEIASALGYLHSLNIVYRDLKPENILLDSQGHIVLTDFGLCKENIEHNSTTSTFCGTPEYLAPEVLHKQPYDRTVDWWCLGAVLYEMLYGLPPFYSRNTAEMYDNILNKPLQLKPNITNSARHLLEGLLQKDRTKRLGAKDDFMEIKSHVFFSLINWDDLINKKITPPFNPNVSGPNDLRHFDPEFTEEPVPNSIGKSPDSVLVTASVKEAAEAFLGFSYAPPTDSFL

[14] = molecular target: Serine/threonine-protein kinase SIK2 (Homo sapiens) (UniProt Q9H0K1); settings: Compound concentration 1000.0 nM
[15] = molecular target: T4, Testis-specific serine/threonine-protein kinase 1 (Homo sapiens) (UniProt Q9BXA7); settings: Compound concentration 1000.0 nM
T4 sequence (whole entry): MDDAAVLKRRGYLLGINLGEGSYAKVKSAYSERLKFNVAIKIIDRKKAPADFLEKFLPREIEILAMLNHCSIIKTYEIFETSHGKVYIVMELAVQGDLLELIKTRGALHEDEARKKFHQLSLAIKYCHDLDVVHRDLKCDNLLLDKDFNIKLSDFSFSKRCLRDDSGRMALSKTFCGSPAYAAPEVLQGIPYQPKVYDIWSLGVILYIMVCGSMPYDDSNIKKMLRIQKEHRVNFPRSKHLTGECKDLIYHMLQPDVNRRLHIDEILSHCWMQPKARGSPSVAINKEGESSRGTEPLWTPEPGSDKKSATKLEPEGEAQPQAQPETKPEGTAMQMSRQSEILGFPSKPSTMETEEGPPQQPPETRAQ

[16] = molecular target: D(1B) dopamine receptor (Homo sapiens) (UniProt P21918); settings: Compound concentration 10.0 uM
[17] = molecular target: Alpha-2C adrenergic receptor (Homo sapiens) (UniProt P18825); settings: Compound concentration 10.0 uM
Sequence of Alpha-2C adrenergic receptor (Homo sapiens) (P18825 whole entry): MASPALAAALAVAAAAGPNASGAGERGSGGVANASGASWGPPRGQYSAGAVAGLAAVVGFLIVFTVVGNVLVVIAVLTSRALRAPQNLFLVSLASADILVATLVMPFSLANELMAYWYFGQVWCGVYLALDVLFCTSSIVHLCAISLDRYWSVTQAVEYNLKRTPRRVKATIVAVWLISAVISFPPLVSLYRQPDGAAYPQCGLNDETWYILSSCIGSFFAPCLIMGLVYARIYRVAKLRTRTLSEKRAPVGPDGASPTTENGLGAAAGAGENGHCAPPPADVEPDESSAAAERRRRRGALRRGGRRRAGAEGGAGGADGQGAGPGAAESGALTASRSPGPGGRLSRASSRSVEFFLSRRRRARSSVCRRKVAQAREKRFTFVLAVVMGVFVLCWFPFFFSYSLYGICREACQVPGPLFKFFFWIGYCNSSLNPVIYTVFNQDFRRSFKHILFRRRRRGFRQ

Sequence of Receptor-type tyrosine-protein kinase FLT3 (Homo sapiens), P36888 [UNDEFINED MUTATION] (P36888 whole entry, looked up, stated change not applied): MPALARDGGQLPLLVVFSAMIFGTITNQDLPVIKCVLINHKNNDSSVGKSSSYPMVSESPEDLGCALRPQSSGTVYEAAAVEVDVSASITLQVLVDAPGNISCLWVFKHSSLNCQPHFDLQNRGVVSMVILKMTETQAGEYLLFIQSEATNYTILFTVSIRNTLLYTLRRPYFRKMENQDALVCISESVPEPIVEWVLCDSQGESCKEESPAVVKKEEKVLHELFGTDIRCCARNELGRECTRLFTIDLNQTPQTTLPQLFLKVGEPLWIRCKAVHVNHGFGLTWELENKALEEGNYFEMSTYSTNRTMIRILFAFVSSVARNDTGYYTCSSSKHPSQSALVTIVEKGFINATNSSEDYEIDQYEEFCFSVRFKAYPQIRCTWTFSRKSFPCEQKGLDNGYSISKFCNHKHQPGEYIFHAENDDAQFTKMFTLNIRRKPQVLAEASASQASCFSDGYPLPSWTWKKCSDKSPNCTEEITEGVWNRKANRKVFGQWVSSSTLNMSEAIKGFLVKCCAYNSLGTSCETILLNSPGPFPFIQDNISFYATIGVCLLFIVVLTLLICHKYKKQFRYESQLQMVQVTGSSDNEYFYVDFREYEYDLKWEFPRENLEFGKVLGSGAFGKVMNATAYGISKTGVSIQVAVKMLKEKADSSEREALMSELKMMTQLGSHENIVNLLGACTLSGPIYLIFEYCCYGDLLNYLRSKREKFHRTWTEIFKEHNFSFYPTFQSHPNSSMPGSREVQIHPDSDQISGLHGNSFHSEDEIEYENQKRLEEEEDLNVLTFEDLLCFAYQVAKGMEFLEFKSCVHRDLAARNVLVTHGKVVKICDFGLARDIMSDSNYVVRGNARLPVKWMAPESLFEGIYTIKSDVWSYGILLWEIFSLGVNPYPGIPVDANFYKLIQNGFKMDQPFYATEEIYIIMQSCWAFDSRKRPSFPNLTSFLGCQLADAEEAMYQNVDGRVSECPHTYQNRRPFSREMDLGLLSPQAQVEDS
Sequence of Serine/threonine-protein kinase SIK2 (Homo sapiens) (Q9H0K1 whole entry, looked up): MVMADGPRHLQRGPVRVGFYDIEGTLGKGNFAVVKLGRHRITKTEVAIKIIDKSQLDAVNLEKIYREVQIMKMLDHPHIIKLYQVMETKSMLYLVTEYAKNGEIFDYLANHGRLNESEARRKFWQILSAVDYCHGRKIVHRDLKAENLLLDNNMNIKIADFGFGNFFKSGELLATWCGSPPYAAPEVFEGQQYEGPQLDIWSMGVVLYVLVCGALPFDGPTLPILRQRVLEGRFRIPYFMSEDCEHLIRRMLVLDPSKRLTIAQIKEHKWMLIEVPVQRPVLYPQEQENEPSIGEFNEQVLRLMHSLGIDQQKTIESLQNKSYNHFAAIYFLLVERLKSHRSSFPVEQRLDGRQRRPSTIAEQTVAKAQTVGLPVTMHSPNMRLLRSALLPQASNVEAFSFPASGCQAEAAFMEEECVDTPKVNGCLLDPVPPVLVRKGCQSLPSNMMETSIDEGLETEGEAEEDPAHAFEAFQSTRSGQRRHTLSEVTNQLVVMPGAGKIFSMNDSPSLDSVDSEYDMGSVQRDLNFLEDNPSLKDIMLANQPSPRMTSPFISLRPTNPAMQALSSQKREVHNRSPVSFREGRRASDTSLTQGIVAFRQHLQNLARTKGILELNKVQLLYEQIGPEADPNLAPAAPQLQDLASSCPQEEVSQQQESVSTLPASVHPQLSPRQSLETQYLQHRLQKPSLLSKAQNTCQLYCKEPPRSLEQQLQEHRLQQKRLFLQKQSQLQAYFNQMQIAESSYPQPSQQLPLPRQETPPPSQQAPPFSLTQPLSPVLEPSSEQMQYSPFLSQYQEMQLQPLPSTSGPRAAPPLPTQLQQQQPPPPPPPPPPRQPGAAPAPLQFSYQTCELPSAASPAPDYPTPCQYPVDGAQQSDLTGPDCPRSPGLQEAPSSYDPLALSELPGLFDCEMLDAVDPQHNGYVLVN
Sequence of D(1B) dopamine receptor (Homo sapiens) (P21918 whole entry): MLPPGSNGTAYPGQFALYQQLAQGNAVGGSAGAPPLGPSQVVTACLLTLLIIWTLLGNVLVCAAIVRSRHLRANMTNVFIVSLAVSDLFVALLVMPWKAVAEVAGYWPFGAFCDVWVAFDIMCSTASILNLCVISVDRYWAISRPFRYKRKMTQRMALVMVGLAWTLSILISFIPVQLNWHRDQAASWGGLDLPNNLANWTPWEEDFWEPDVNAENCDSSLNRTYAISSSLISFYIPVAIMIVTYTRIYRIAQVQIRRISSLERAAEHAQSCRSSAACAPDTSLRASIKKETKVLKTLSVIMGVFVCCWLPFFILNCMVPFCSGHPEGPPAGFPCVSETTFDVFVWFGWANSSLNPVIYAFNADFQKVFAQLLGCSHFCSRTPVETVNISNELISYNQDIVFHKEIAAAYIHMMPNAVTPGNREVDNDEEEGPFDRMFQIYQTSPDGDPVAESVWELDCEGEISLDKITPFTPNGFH
Sequence of Dual specificity mitogen-activated protein kinase kinase 4 (Homo sapiens) (P45985 whole entry): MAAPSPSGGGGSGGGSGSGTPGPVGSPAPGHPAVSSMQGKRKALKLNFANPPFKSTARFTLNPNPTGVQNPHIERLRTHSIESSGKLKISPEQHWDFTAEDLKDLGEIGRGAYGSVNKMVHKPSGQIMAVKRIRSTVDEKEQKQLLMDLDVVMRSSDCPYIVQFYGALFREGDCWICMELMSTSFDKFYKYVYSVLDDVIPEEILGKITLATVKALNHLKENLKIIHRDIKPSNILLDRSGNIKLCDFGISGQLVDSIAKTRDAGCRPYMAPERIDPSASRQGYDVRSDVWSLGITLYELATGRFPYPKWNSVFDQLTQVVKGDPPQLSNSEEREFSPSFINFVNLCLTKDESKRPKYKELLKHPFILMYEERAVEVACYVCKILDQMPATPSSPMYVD
Sequence of Insulin-like growth factor 1 receptor (Homo sapiens) (P08069 31-736 limits assumed): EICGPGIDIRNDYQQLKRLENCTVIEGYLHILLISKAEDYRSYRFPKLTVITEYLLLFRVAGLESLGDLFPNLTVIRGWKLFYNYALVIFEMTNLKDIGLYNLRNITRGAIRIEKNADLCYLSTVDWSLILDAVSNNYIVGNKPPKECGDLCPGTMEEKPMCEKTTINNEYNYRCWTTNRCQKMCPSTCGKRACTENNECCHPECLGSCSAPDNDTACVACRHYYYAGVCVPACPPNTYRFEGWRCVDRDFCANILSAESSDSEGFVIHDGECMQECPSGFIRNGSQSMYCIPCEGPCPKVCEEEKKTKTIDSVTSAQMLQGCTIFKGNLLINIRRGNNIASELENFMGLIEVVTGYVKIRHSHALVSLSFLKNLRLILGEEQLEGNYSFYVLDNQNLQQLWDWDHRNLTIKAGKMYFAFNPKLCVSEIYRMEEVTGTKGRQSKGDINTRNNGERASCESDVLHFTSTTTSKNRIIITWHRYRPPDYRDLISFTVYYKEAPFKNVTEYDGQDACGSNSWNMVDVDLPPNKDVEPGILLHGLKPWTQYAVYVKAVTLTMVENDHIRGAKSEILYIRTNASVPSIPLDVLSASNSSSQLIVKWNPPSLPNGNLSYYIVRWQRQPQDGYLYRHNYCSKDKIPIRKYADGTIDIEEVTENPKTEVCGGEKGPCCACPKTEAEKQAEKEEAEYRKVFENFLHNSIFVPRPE
Sequence of Insulin-like growth factor 1 receptor (Homo sapiens) (P08069 741-1367 limits assumed): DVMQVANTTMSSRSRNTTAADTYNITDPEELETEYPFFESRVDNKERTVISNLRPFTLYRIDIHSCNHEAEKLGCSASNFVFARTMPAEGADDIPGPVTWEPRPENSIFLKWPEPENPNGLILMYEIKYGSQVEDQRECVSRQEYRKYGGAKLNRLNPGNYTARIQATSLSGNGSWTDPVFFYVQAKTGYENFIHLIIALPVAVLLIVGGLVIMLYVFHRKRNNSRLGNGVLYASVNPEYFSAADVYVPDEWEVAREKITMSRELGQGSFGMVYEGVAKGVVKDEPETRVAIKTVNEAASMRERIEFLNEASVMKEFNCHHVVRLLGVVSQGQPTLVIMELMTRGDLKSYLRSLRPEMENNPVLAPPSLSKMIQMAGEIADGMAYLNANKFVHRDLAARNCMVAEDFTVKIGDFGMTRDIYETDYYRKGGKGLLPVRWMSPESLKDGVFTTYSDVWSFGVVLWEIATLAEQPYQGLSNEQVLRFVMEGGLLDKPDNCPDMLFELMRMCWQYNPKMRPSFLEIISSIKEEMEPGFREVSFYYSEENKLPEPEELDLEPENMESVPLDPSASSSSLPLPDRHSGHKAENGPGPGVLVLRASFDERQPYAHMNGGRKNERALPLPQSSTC
Sequence of Phosphorylase b kinase gamma catalytic chain, skeletal muscle/heart isoform (Homo sapiens) (Q16816 whole entry, looked up, canonical isoform): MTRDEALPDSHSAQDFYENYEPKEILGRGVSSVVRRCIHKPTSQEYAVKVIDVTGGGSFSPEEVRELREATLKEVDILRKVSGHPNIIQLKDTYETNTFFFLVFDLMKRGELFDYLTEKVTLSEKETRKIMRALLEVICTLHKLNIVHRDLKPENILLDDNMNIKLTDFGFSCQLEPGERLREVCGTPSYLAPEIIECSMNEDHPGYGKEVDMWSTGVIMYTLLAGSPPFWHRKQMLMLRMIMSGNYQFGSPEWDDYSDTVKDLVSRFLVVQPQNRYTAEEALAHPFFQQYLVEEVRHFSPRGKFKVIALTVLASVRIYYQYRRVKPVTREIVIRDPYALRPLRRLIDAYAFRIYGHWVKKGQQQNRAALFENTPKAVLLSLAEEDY

Compound: CCc1ccccc1C(=O)Nc1n[nH]c2c(C)c(F)c(C3C(C#N)=C(C)N(C)C(C)=C3C#N)cc12 [BAY-3827]
- residual activity [1]: 48%
- residual activity [2]: 100%
- residual activity [3]: 16%
- residual activity [4]: 12%
- residual activity [5]: 11%
- residual activity [6]: 87%
- residual activity [7]: 68%
- residual activity [8]: 100%
- residual activity [9]: 100%
- residual activity [10]: 100%
- residual activity [11]: 44%
- residual activity [12]: 39%
- residual activity [13]: 100%
- residual activity [14]: 69%
- residual activity [15]: 95%
- inhibition [16]: 8.47%
- inhibition [17]: 10%

Compound: CC1=C(C#N)C(c2ccc3c(c2)c(NC(=O)c2ccccc2C)nn3C)C(C#N)=C(C)N1 [BAY-974]
- residual activity [1]: 74%
- residual activity [2]: 81%
- residual activity [3]: 90%
- residual activity [4]: 76%
- residual activity [5]: 64%
- residual activity [6]: 96%
- residual activity [7]: 100%
- residual activity [8]: 75%
- residual activity [9]: 79%
- residual activity [10]: 100%
- residual activity [11]: 91%
- residual activity [12]: 87%
- residual activity [13]: 89%
- residual activity [14]: 93%
- residual activity [15]: 100%
- inhibition [16]: 14.6%
- inhibition [17]: 10.2%
